Test results from patent US20220088144A1, “SGLT-2 INHIBITORS OR IL-1R ANTAGONISTS FOR REDUCTION OF HYPOGLYCAEMIA AFTER BARIATRIC SURGERY” (UNIVERSITÄTSSPITAL BASEL, priority 2019, published 2022).

Test system: bulk monocytes
Test: Ex vivo cytokine-secretion assay of monocytes isolated from treated patients
Assay type: cell-based, human
Details: for IL-1 beta in monocyte supernatant, estimate vs placebo: FIG. 9a; for IL-1 beta in monocyte supernatant, estimate vs placebo / IL-6 in monocyte supernatant, estimate vs placebo / TNFalpha in monocyte supernatant, estimate vs placebo: post-meal, no-hypo vs placebo, no-hypo, non-stimulated; for IL-6 in monocyte supernatant, estimate vs placebo: FIG. 9b; for TNFalpha in monocyte supernatant, estimate vs placebo: FIG. 9c; for postprandial increase in inflammatory cytokine secretion (IL-1β, IL-6, TNF-α) by monocytes: ex vivo culture 18 h, compared to placebo
Protocol: In order to evaluate if changes at RNA level translated into protein expression, the inventors cultured monocytes isolated as described for RNA sequencing for a period of 18 h and measured pro-inflammatory cytokines in cell culture supernatants. […] In line with the reasoning, it has been shown that monocytes taken from an inherently pro-inflammatory milieu (septic shock), express increased mRNA levels of various inflammatory cytokines and chemokines (IL-1β, IL-1α, IL-6, CCL2), but release markedly lower levels of protein following ex vivo stimulation with LPS.
Blood samples were taken before and 60 minutes after meal intake. Due to scheduling conflicts, samples from two patients could not be processed. These samples are thus assumed to be missing at random. Of note, samples from patient 3 (sleeve gastrectomy) had already been processed for RNA sequencing before the final change of protocol. Sequencing data obtained from this patient were thus kept for the purpose of these analyses. Peripheral blood mononuclear cells were obtained by Ficoll density gradient centrifugation (Lymphoprep Fresenius Kabi, Norway). For 9 out of 11 patients, an additional step was added after density gradient centrifugation to pre-enrich monocytes by negative selection with CD3 human MicroBeads (#130-050-101; Miltenyi Biotec). The obtained cellular monocyte fractions were then incubated with FC-Block for 15 minutes at room temperature [(Human FcR TruStain FcX (Biolegend) REF 422302, compatible with flow cytometric staining with anti-human CD16 (clone 3G8)], and subsequently labeled with the following antibodies: APC Mouse anti-Human CD3 [HIT3a alpha] (#555342; BD Biosciences), FITC Mouse Anti-Human CD19 [HIB19 RUO] (#560994; BD Biosciences), PE-Cy5 Mouse Anti-Human CD56 [B159 RUO] (#560842; BD Biosciences), PE Mouse Anti-Human CD16 [3G8 RUO] (#560995; BD Biosciences), APC-Cy7 Mouse Anti-Human CD14 [MφP-9 RUO] (#561709; BD Biosciences).
Cells were then further enriched into the three monocyte subsets by fluorescence-activated cell sorting on a BD FACS-Aria III. Classical monocytes were defined as: single, live, CD56− CD19−CD3−CD14+CD16−, Intermediate monocytes were defined as: single, live CD56−CD19− CD3−CD14+CD16+ and non-classical monocytes were defined as: single, live CD56−CD19− CD3−CD14−CD16+. Bulk monocytes were defined as a combination-gate of the three subsets. For a representative example of the gating strategy see FIG. 13.
Bulk monocytes obtained as described above were resuspended in fresh medium (RPMI-1640 (containing 11 mM Glucose, #31870-025; GIBCO) containing 200 U/ml penicillin, 200 U/ml streptomycin (Pen/Strep, #15140; GIBCO), 2 mM Glutamax (#35050061; GIBCO), 1 mM NaPyruvat (#11360-039; GIBCO), 1×MeM (#11140050; Sigma) and 10% FCS (#10500; Invitrogen)) at a density of 50'000 cells/well in a standard 96-well U-bottom plate. For each patient-visit sample, monocytes pre- and post-liquid mixed-meal were either left unstimulated (baseline condition) or activated with LPS (LPS-SM, #tlrl-smlps, Invivogen=activated condition) at a concentration of 5 ng/ml in duplicates. Thus, treated cells were then incubated for a period of 18 hours at 37° C. and 5% CO2 followed by harvesting of cell supernatants. Cytokine concentrations were determined in cell supernatants using the V-PLEX Human Proinflammatory Panel II (4-Plex) kit (Mesoscale Discovery) according to the manufacturer's instructions (Alternate Protocol 1, Extended Incubation). Two patients had to be excluded from analysis due to technical problems.

OC[C@H]1O[C@@H](c2ccc(Cl)c(Cc3ccc(O[C@H]4CCOC4)cc3)c2)[C@H](O)[C@@H](O)[C@@H]1O [empagliflozin]
IL-1 beta in monocyte supernatant, estimate vs placebo: −3395.36
IL-6 in monocyte supernatant, estimate vs placebo: −18937.7
TNFalpha in monocyte supernatant, estimate vs placebo: −453.496
postprandial increase in inflammatory cytokine secretion (IL-1β, IL-6, TNF-α) by monocytes: significantly inhibited

anakinra: CAS NO 143090-92-0; recombinant, non-glycosylated form of the human interleukin-1 receptor antagonist (IL-1 Ra), 153 amino acids
IL-1 beta in monocyte supernatant, estimate vs placebo: −2426.73
IL-6 in monocyte supernatant, estimate vs placebo: −17208.1
TNFalpha in monocyte supernatant, estimate vs placebo: −452.659
postprandial increase in inflammatory cytokine secretion (IL-1β, IL-6, TNF-α) by monocytes: significantly inhibited
